Among the test systems are UACC-257 melanoma; HS 578T breast; COLO 205 colon; NCI-H23 lung; HCT-15 colon; SF-268 CNS; MDA-MB-231 breast; SK-MEL-5 melanoma; UACC-62 melanoma; K-562 leukemia; NCI-H226 lung; SR leukemia; M14 melanoma; OVCAR-3 ovarian; A549 NSCLC; SF-539 CNS; TK-10 renal; LOX IMVI melanoma; EKVX NSCLC; A498 renal.
Holding throughout (assay): NCI tumour cell line growth inhibition, 48 h

The source of these data is PubChem BioAssay (NCI).

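Growth conditions: 96-well plates. Treatment: test compound, 48 hours, 5 concentrations. Analysis: linear interpolation between bracketing concentrations; unreached endpoints set to highest concentration. TGI: total growth inhibition.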

Consider `O=c1cc(-c2ccccc2)[nH]c2ccc(S)cc12`, for which the TGI in the assay with UACC-257 melanoma was greater than 100 µM; in the assay on HS 578T breast, greater than 100 µM; with COLO 205 colon it was greater than 100 µM; with NCI-H23 lung, greater than 100 µM; in the assay on HCT-15 colon, 48 µM; with SF-268 CNS, greater than 100 µM. Further, the TGI in the assay with MDA-MB-231 breast was greater than 100 µM; in the assay with SK-MEL-5 melanoma, 29.5 µM; in the assay on UACC-62 melanoma, greater than 100 µM; in the assay on K-562 leukemia, greater than 100 µM; with NCI-H226 lung it was 81.9 µM; in the assay with SR leukemia it was greater than 100 µM. The TGI is 84.8 µM in the assay on M14 melanoma; greater than 100 µM in the assay with OVCAR-3 ovarian; greater than 100 µM with A549 NSCLC; greater than 100 µM in the assay on SF-539 CNS; 79.6 µM in the assay with TK-10 renal.
As to `COc1ccc(C2C(C#N)=C(S)N(C3OC(COC(C)=O)C(OC(C)=O)C(OC(C)=O)C3OC(C)=O)C(C)=C2C(C)=O)cc1` (stereo unspecified), the TGI with UACC-257 melanoma, with HS 578T breast, in the assay with COLO 205 colon, with NCI-H23 lung, in the assay with HCT-15 colon and in the assay on SF-268 CNS was greater than 100 µM each time. In addition, the TGI with MDA-MB-231 breast, with SK-MEL-5 melanoma, with UACC-62 melanoma, with LOX IMVI melanoma, in the assay with K-562 leukemia and in the assay on SR leukemia was greater than 100 µM throughout. The TGI with M14 melanoma, in the assay with OVCAR-3 ovarian, in the assay on A549 NSCLC, in the assay with SF-539 CNS and with TK-10 renal was greater than 100 µM in each case.
Take `COC1=N[C@H](C(C)C)C(OC)=N[C@H]1Cc1ccc(C[C@@H]2N=C(OC)[C@@H](C(C)C)N=C2OC)s1`: the TGI is 97.1 µM in the assay with UACC-257 melanoma; greater than 100 µM in the assay on HS 578T breast; greater than 100 µM with COLO 205 colon; 72.9 µM with NCI-H23 lung; greater than 100 µM in the assay on HCT-15 colon; greater than 100 µM in the assay on SF-268 CNS. Further, the TGI with MDA-MB-231 breast was greater than 100 µM; with SK-MEL-5 melanoma it was 47.8 µM; in the assay with UACC-62 melanoma, greater than 100 µM; in the assay on LOX IMVI melanoma, greater than 100 µM; with K-562 leukemia, greater than 100 µM; with EKVX NSCLC, greater than 100 µM. Also, the TGI is 51 µM in the assay with SR leukemia; greater than 100 µM with M14 melanoma; greater than 100 µM in the assay with OVCAR-3 ovarian; greater than 100 µM in the assay with A549 NSCLC; greater than 100 µM with SF-539 CNS; greater than 100 µM with TK-10 renal.
Take `O=C1NC(N2CCCC(CO)C2)=N/C1=C\c1ccccc1` (stereo unspecified): the TGI with UACC-257 melanoma, in the assay on HS 578T breast, with COLO 205 colon, in the assay with NCI-H23 lung, in the assay with HCT-15 colon and in the assay with SF-268 CNS was greater than 100 µM throughout. Also, the TGI in the assay on MDA-MB-231 breast, with SK-MEL-5 melanoma, with UACC-62 melanoma, with LOX IMVI melanoma, in the assay with EKVX NSCLC and in the assay with NCI-H226 lung was greater than 100 µM throughout. The TGI in the assay with SR leukemia, in the assay with M14 melanoma, in the assay with OVCAR-3 ovarian, with A549 NSCLC, in the assay with SF-539 CNS and in the assay with TK-10 renal was greater than 100 µM each time.
As for `N#Cc1cc2c(cc1C#N)/C(=N\c1cccc(N)n1)N=C2Nc1cccc(N)n1`, the TGI with UACC-257 melanoma is greater than 100 µM; in the assay with HS 578T breast it was greater than 100 µM; with COLO 205 colon, 51.9 µM; in the assay with NCI-H23 lung, 40.1 µM; with HCT-15 colon, 76.5 µM; with SF-268 CNS, 49.2 µM. The TGI in the assay with MDA-MB-231 breast is 40.9 µM; with SK-MEL-5 melanoma, 22.1 µM; with UACC-62 melanoma, 41 µM; in the assay with LOX IMVI melanoma, greater than 100 µM; in the assay with K-562 leukemia it was greater than 100 µM; in the assay with EKVX NSCLC, greater than 100 µM. Further, the TGI with NCI-H226 lung is greater than 100 µM; in the assay on SR leukemia, greater than 100 µM; in the assay on M14 melanoma, 34.1 µM; in the assay on OVCAR-3 ovarian it was greater than 100 µM; in the assay on A549 NSCLC, greater than 100 µM; with SF-539 CNS, 43.2 µM. Further, in the assay with TK-10 renal, the TGI amounted to 68.8 µM.
Turning to `CC(C)=Cc1cc(C)c2c3c(c(O)c(O)c(C)c13)C(C)=CC2=O`, the TGI is greater than 100 µM in the assay with UACC-257 melanoma; 74.4 µM in the assay on HS 578T breast; 26.6 µM in the assay on COLO 205 colon; 64.5 µM with NCI-H23 lung; 51.3 µM in the assay with HCT-15 colon; 60.3 µM in the assay with SF-268 CNS. Also, the TGI is 64.4 µM with MDA-MB-231 breast; 47.5 µM in the assay with A498 renal; 35 µM in the assay on SK-MEL-5 melanoma; 50.8 µM in the assay on UACC-62 melanoma; 38 µM in the assay on LOX IMVI melanoma; greater than 100 µM with K-562 leukemia. The TGI in the assay on NCI-H226 lung came to 50.9 µM; in the assay on SR leukemia, 78.1 µM; in the assay on M14 melanoma it was 48.9 µM; in the assay with OVCAR-3 ovarian it was 52.7 µM; in the assay with A549 NSCLC, 56 µM; with SF-539 CNS, 71.6 µM.
In the case of `CO/N=C(/C)c1cccc(Nc2nc3ccc(Cl)cc3c3[nH]c4ccccc4c23)c1`, the TGI in the assay with UACC-257 melanoma stood at 29.1 µM; in the assay on HS 578T breast it was 45.8 µM; in the assay with COLO 205 colon, 19.9 µM; with NCI-H23 lung, 28.5 µM; in the assay with HCT-15 colon it was 27.1 µM; in the assay on SF-268 CNS, 29.5 µM. In addition, the TGI with MDA-MB-231 breast amounted to 27.8 µM; in the assay on A498 renal, 14.2 µM; with SK-MEL-5 melanoma, 16.9 µM; with UACC-62 melanoma, 19.8 µM; in the assay on LOX IMVI melanoma, 26 µM; with K-562 leukemia, 34.6 µM. In addition, the TGI with NCI-H226 lung was 27.9 µM; in the assay on SR leukemia it was 14.6 µM; in the assay on M14 melanoma, 20.7 µM; in the assay on OVCAR-3 ovarian it was 18.5 µM; with A549 NSCLC, 30.2 µM; with SF-539 CNS it was 30.1 µM.
Take `CNCCN[C@@H]1c2cc3c(cc2[C@@H](c2cc(OC)c(O)c(OC)c2)[C@H]2C(=O)OC[C@@H]21)OCO3`: the TGI was 7.61 µM in the assay with UACC-257 melanoma; 1.34 µM in the assay on HS 578T breast; 12 µM with COLO 205 colon; 1.54 µM in the assay with NCI-H23 lung; 98.7 µM in the assay on HCT-15 colon; greater than 25.6 µM in the assay with SF-268 CNS. Besides, the TGI with MDA-MB-231 breast was 2.71 µM; in the assay with SK-MEL-5 melanoma it was 1.16 µM; in the assay with UACC-62 melanoma it was 0.831 µM; in the assay with LOX IMVI melanoma, 1.35 µM; with K-562 leukemia, greater than 100 µM; in the assay with EKVX NSCLC it was 22.7 µM. Besides, the TGI amounted to 0.686 µM with NCI-H226 lung; 0.287 µM with SR leukemia; 4.68 µM with M14 melanoma; 4.17 µM with OVCAR-3 ovarian; 0.167 µM in the assay on SF-539 CNS; 8.21 µM with TK-10 renal.
For `C[C@@H](CC(=O)O)OC1OC(COC(=O)C(C)(C)C)C(OC(=O)C(C)(C)C)C(OC(=O)C(C)(C)C)C1OC(=O)C(C)(C)C` (stereo partly specified), the TGI in the assay on UACC-257 melanoma was greater than 100 µM; with HS 578T breast it was greater than 100 µM; in the assay with COLO 205 colon, greater than 100 µM; with NCI-H23 lung it was 93.5 µM; in the assay with HCT-15 colon, 84.9 µM; with SF-268 CNS, greater than 100 µM. Besides, the TGI with MDA-MB-231 breast was greater than 100 µM; in the assay with A498 renal it was greater than 100 µM; in the assay on SK-MEL-5 melanoma it was 98.4 µM; with UACC-62 melanoma, greater than 100 µM; in the assay with LOX IMVI melanoma, greater than 100 µM; in the assay with K-562 leukemia it was greater than 100 µM. For the same compound, the TGI with EKVX NSCLC, in the assay with NCI-H226 lung, with M14 melanoma, in the assay with OVCAR-3 ovarian, in the assay on A549 NSCLC and in the assay on SF-539 CNS was greater than 100 µM each time. This compound yielded a TGI in the assay on TK-10 renal greater than 100 µM.
`Cc1csc(NNC(N)=O)n1`: the TGI with UACC-257 melanoma, in the assay with HS 578T breast, in the assay on COLO 205 colon, in the assay on NCI-H23 lung, in the assay with HCT-15 colon and in the assay with SF-268 CNS was greater than 100 µM in each case. In addition, the TGI with MDA-MB-231 breast, in the assay on SK-MEL-5 melanoma, in the assay on UACC-62 melanoma, in the assay on LOX IMVI melanoma, in the assay with EKVX NSCLC and with NCI-H226 lung was greater than 100 µM each time. For the same compound, the TGI in the assay on SR leukemia, in the assay on M14 melanoma, in the assay with OVCAR-3 ovarian, in the assay on A549 NSCLC, in the assay with SF-539 CNS and in the assay on TK-10 renal was greater than 100 µM each time.
Regarding `CCOC(=O)Nc1sc2c(c1C#N)CC(C)CC2` (stereo unspecified), the TGI in the assay with UACC-257 melanoma was 42.8 µM; in the assay with HS 578T breast, 65.9 µM; with COLO 205 colon, 18.2 µM; in the assay on NCI-H23 lung, greater than 100 µM; in the assay with HCT-15 colon, greater than 100 µM; with SF-268 CNS, 96.6 µM. In addition, the TGI in the assay on MDA-MB-231 breast is 46.7 µM; in the assay on SK-MEL-5 melanoma it was 16.6 µM; with UACC-62 melanoma, 96.4 µM; in the assay on LOX IMVI melanoma, 54.5 µM; in the assay with K-562 leukemia, greater than 100 µM; in the assay with EKVX NSCLC it was greater than 100 µM. Besides, the TGI in the assay on NCI-H226 lung was 35.3 µM; in the assay with SR leukemia, 18.4 µM; in the assay on M14 melanoma, 17.4 µM; in the assay on OVCAR-3 ovarian, greater than 100 µM; in the assay on A549 NSCLC, 40 µM; in the assay on TK-10 renal, 98 µM.
Regarding `Cc1cn(C2C=CC(COP(=O)(OCc3ccc([N+](=O)[O-])o3)N(C)CCCCCl)O2)c(=O)[nH]c1=O` (stereo unspecified), the TGI in the assay on UACC-257 melanoma came out at 18.4 µM; with HS 578T breast it was 9.89 µM; with COLO 205 colon, 9.87 µM; in the assay with NCI-H23 lung, 10.7 µM; in the assay with HCT-15 colon, 35.7 µM; with SF-268 CNS it was 23.8 µM. Besides, the TGI is 25.9 µM in the assay with MDA-MB-231 breast; 3.26 µM in the assay on SK-MEL-5 melanoma; 17.3 µM in the assay with UACC-62 melanoma; 13.5 µM in the assay with LOX IMVI melanoma; 21.6 µM in the assay with K-562 leukemia; 23.6 µM in the assay on NCI-H226 lung. For the same compound, the TGI with SR leukemia came out at 4.83 µM; with M14 melanoma it was 17.3 µM; with OVCAR-3 ovarian, 4.8 µM; in the assay with A549 NSCLC it was 22.8 µM; with SF-539 CNS, 12.3 µM; in the assay with TK-10 renal, 34.3 µM.
